Measurements from paper PMC6792352, “Limited Chemical Structural Diversity Found to Modulate Thyroid Hormone Receptor in the Tox21 Chemical Library” (Environmental Health Perspectives, 2019).
Counter-ions that a name gives are not always drawn. Like-named read-outs stand apart in the source and are kept apart here.

Assays:
[1] = test system: GH3-TRE-Luc cell line; settings: read-out: AC50 (uM) modified / 1000, viability, 1 nM T3 present, 24 h
[2] = in vitro; settings: rat, gh3-tre-luc cells, AC50 (uM) modified / 1000

## CO/N=C1\C[C@]2(C[C@@H]3C[C@@H](C/C=C(\C)C[C@@H](C)/C=C/C=C4\CO[C@@H]5[C@H](O)C(C)=C[C@@H](C(=O)O3)[C@]45O)O2)O[C@H](/C(C)=C/C(C)C)[C@H]1C [Moxidectin]
[1]; Tox21_110001=Tox21_113093
  CC50: 4.45 µM
[2]
  CC50 at 24 h: 5.14 µM

## Cc1ccc(N)c(N)c1 [3,4-Diaminotoluene]
[1]; Tox21_110001=Tox21_300507
  CC50: 18.4 µM
[2]
  CC50 at 24 h: 32.1 µM

## C=CC(=O)OCCCCCCOC(=O)C=C [1,6-Hexanediol diacrylate]
[1]; Tox21_110001=Tox21_303168
  CC50: 46.1 µM
[2]
  CC50 at 24 h: 57.6 µM

## N=c1ccn2c(n1)O[C@H]1[C@H](O)[C@@H](CO)O[C@H]12 [Cyclocytidine]
[1]; Tox21_110001=Tox21_111571
  CC50: 1.18 µM
[2]
  CC50 at 24 h: 1.45 µM

## CC1=C(/C=C/C(C)=C/C=C/C(C)=C/C(=O)Nc2ccc(O)cc2)C(C)(C)CCC1 [4-Hydroxyphenyl retinamide]
[1]; Tox21_110001=Tox21_111007
  CC50: 6.39 µM
[2]
  CC50 at 24 h: 10 µM

## Oc1c(I)cc(Cl)c2cccnc12 [Clioquinol]
[1]; Tox21_110001=Tox21_110416
  CC50: 43.7 µM
[2]
  CC50 at 24 h: 43.1 µM

## Nc1c(/N=N/c2ccc(-c3ccc(/N=N/c4cc(S(=O)(=O)O)c5ccccc5c4N)cc3)cc2)cc(S(=O)(=O)O)c2ccccc12 [C.I. Direct Red 28]
[1]; Tox21_110001=Tox21_111605
  CC50: 16.3 µM
[2]
  CC50 at 24 h: 27 µM

## Cc1c(C(=O)O)c(O)cc2c1C(=O)c1c(O)c([C@@H]3O[C@H](CO)[C@@H](O)[C@H](O)[C@H]3O)c(O)c(O)c1C2=O [Carminic acid]
[1]; Tox21_110001=Tox21_300294
  CC50: 56.2 µM
[2]
  CC50 at 24 h: 55.9 µM

## O=C(CCCCCCC(=O)Nc1ccccc1)NO [Suberoylanilide hydroxamic acid]
[1]; Tox21_110001=Tox21_112605
  CC50: 2.46 µM
[2]
  CC50 at 24 h: 2.15 µM

## CN1[C@@H]2CC[C@H]1C[C@@H](OC(c1ccccc1)c1ccccc1)C2 [Benztropine]
[1]; Tox21_110001=Tox21_111695
  CC50: 13.8 µM
[2]
  CC50 at 24 h: 24.5 µM

## OC(CCN1CCCCC1)(c1ccccc1)C1CC2C=CC1C2 (stereo not shown) [Biperiden hydrochloride]
[1]; Tox21_110001=Tox21_113064
  CC50: 27 µM
[2]
  CC50 at 24 h: 22.6 µM

## C=CCOC(Cn1ccnc1)c1ccc(Cl)cc1Cl (stereo not shown) [Imazalil]
[1]; Tox21_110001=Tox21_300720
  CC50: 79.9 µM
[2]
  CC50 at 24 h: 53.5 µM

## c1cc(N(CC2CO2)CC2CO2)ccc1OCC1CO1 (stereo not shown) [4-(Diglycidylamino)phenyl glycidyl ether]
[1]; Tox21_110001=Tox21_302646
  CC50: 25.4 µM
[2]
  CC50 at 24 h: 30.4 µM

## O=Nc1ccc(Nc2ccccc2)cc1 [4-Nitrosodiphenylamine]
[1]; Tox21_110001=Tox21_302822
  CC50: 14.9 µM
[2]
  CC50 at 24 h: 8.75 µM

## O=C(O[C@@H]1Cc2c(O)cc(O)cc2O[C@@H]1c1cc(O)c(O)c(O)c1)c1cc(O)c(O)c(O)c1 [(-)-Epigallocatechin gallate]
[1]; Tox21_110001=Tox21_303457
  CC50: 50.7 µM
[2]
  CC50 at 24 h: 48.4 µM

## CCCCCC(=O)O[C@]1(C(C)=O)CC[C@H]2[C@@H]3CCC4=CC(=O)CC[C@]4(C)[C@H]3CC[C@@]21C [Hydroxyprogesterone caproate]
[1]; Tox21_110001=Tox21_302333
  CC50: 26.2 µM
[2]
  CC50 at 24 h: 17.9 µM

## O=[N+]([O-])c1cc(N(CCO)CCO)ccc1NCCO [HC Blue 2]
[1]; Tox21_110001=Tox21_302947
  CC50: 91.6 µM
[2]
  CC50 at 24 h: > 90 µM

## O=C(Nc1ccc([N+](=O)[O-])cc1Cl)c1cc(Cl)ccc1O [Niclosamide]
[1]; Tox21_110001=Tox21_110209
  CC50: 0.618 µM
[2]
  CC50 at 24 h: 0.487 µM

## CCOc1cc(Oc2ccc(C(F)(F)F)cc2Cl)ccc1[N+](=O)[O-] [Oxyfluorfen]
[1]; Tox21_110001=Tox21_300827
  CC50: 50 µM
[2]
  CC50 at 24 h: 79.3 µM

## CC1=C(/C=C/C(C)=C/C=C/C(C)=C/CO)C(C)(C)CCC1 [Retinol]
[1]; Tox21_110001=Tox21_300287
  CC50: 85.7 µM
[2]
  CC50 at 24 h: 63.5 µM

## CC(COc1ccccc1)N(CCCl)Cc1ccccc1 (stereo not shown) [Phenoxybenzamine hydrochloride]
[1]; Tox21_110001=Tox21_302978
  CC50: 68.5 µM
[2]
  CC50 at 24 h: 45 µM

## CC(=O)Oc1ccccc1C(=O)Nc1ncc([N+](=O)[O-])s1 [Nitazoxanide]
[1]; Tox21_110001=Tox21_111018
  CC50: 27.7 µM
[2]
  CC50 at 24 h: 23.7 µM

## CC(C)N(C(=O)CCl)c1ccccc1 [Propachlor]
[1]; Tox21_110001=Tox21_303036
  CC50: 54.1 µM
[2]
  CC50 at 24 h: 48.7 µM

## CCCCCCCCCCCCCCCC[N+](C)(C)Cc1ccccc1 [Benzylhexadecyldimethylammonium chloride]
[1]; Tox21_110001=Tox21_112574
  CC50: 13.4 µM
[2]
  CC50 at 24 h: 21.5 µM

## Oc1c(Cl)cc(Cl)c(Cl)c1Cc1c(O)c(Cl)cc(Cl)c1Cl [Hexachlorophene]
[1]; Tox21_110001=Tox21_111099
  CC50: 14.8 µM
[1]; Tox21_110001=Tox21_302741
  CC50: 22.4 µM
[2]
  CC50 at 24 h: 17.1 µM

## C1CN(SSN2CCOCC2)CCO1 [4,4'-Dithiodimorpholine]
[1]; Tox21_110001=Tox21_303110
  CC50: 49.5 µM
[2]
  CC50 at 24 h: 69.4 µM

## CCCCCCc1ccc(O)cc1O [4-Hexylresorcinol]
[1]; Tox21_110001=Tox21_300357
  CC50: 56.7 µM
[2]
  CC50 at 24 h: 61 µM

## C(=NC1CCCCC1)=NC1CCCCC1 [Dicyclohexylcarbodiimide]
[1]; Tox21_110001=Tox21_303237
  CC50: 49.8 µM
[2]
  CC50 at 24 h: > 90 µM

## C=C1CC[C@H](O)C/C1=C/C=C1\CCC[C@]2(C)[C@@H]([C@H](C)CCCC(C)C)CC[C@@H]12 [Vitamin D3]
[1]; Tox21_110001=Tox21_111578
  CC50: 24.3 µM
[2]
  CC50 at 24 h: 44.3 µM

## CN1CCc2cccc3c2[C@H]1Cc1ccc(O)c(O)c1-3 [Apomorphine hydrochloride hydrate]
[1]; Tox21_110001=Tox21_303480
  CC50: 26.7 µM
[2]
  CC50 at 24 h: 48.2 µM

## Oc1ccccc1O [Catechol]
[1]; Tox21_110001=Tox21_300153
  CC50: 32.6 µM
[2]
  CC50 at 24 h: 33.7 µM

## Clc1ccc(C(c2ccccc2Cl)C(Cl)(Cl)Cl)cc1 (stereo not shown) [o,p'-DDT]
[1]; Tox21_110001=Tox21_300622
  CC50: 39.9 µM
[2]
  CC50 at 24 h: 34 µM

## CC(C)(C)c1ccc(O)c(C(C)(C)C)c1 [2,4-Di-tert-butylphenol]
[1]; Tox21_110001=Tox21_300114
  CC50: 29.7 µM
[2]
  CC50 at 24 h: 47.6 µM

## CCCCN(CC)c1c([N+](=O)[O-])cc(C(F)(F)F)cc1[N+](=O)[O-] [Benfluralin]
[1]; Tox21_110001=Tox21_300774
  CC50: 46 µM
[2]
  CC50 at 24 h: > 90 µM

## CCN(CC)CCSC(=O)C(c1ccccc1)c1ccccc1 [Thiphenamil]
[1]; Tox21_110001=Tox21_111676
  CC50: 30.2 µM
[2]
  CC50 at 24 h: 41 µM

## CN(C)CCC(c1ccc(Cl)cc1)c1ccccn1 (stereo not shown) [Chlorpheniramine maleate]
[1]; Tox21_110001=Tox21_303456
  CC50: 41.3 µM
[2]
  CC50 at 24 h: 40.4 µM

## CCCN(CCC)c1c([N+](=O)[O-])cc(C(F)(F)F)cc1[N+](=O)[O-] [Trifluralin]
[1]; Tox21_110001=Tox21_300918
  CC50: 62.5 µM
[2]
  CC50 at 24 h: > 90 µM

## O=C(Nc1cccc(C(F)(F)F)c1)c1cc(Br)cc(Br)c1O [Fluorosalan]
[1]; Tox21_110001=Tox21_112749
  CC50: 3.92 µM
[2]
  CC50 at 24 h: 2.69 µM

## O=[N+]([O-])c1ccc(Nc2ccccc2)cc1 [4-Nitro-N-phenylaniline]
[1]; Tox21_110001=Tox21_303333
  CC50: 76.1 µM
[2]
  CC50 at 24 h: 45.4 µM
